From US7902252B2, “Inhibitors of D-amino acid oxidase” (Sepracor, Inc., priority 2007, dated 2011)

These compounds were tested against Human DAAO (Homo sapiens, UniProt P14920) (assay: D-Amino Acid Oxidase enzyme assay (D-serine, horseradish peroxidase/Amplex Red coupled fluorescence)). Conditions: D-serine 5 mM, pH 7.4.
Format: biochemical
Method: DAAO enzyme activity was measured using the substrate D-serine at its Michaelis-Menton Km of 5 mM. The rate of oxidation is measured as a rate of production of hydrogen peroxide, which was detected using the enzyme horseradish peroxidase (Sigma cat. No. P-8375). This coupled reaction uses the enzyme substrate Amplex Red (Molecular Probes), which is converted to the fluorescent reaction product, resorufin (excitation 530-560 nm; emission ˜590 nm). Although DAAO has a higher pH optimum, all reagents were prepared in 50 mM sodium phosphate buffer at pH 7.4 and inhibition curves were generated at this pH.
The final concentrations of components in 200 μl total volume per well (black clear-bottom 96-well plate, Costar) were:
(a) Horseradish peroxidase: 4 Units per mL
(d) Amplex Red reagent: 50 uM
The reactions were initiated by addition of DAAO enzyme and the fluorescence was monitored. H2O2 was added at 16 uM final concentration to a control well on each plate to test for compound interference with a coupled enzyme. Inhibition curves were generated in the presence of varying concentrations of the inhibitor and IC50 values were calculated for each inhibitor.
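Wherever Cerebellum D-serine at 2 hours is given: Cutoffs are cerebellum D-serine in nmol/g wet tissue weight.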
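Wherever Cerebellum D-serine at 6 hours is given: Cutoffs are cerebellum D-serine in nmol/g wet tissue weight.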

Sequence of Human DAAO (P14920 whole entry): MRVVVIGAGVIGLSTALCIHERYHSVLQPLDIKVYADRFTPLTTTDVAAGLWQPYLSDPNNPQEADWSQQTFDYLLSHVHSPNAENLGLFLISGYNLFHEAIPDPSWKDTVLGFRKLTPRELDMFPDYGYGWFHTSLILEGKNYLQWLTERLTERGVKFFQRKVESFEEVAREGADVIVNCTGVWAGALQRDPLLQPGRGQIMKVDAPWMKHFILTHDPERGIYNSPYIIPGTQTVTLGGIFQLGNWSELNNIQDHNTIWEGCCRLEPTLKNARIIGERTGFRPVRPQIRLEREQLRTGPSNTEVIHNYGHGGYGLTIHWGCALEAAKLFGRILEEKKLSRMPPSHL

Structure (SMILES)	IC50 [µM]
O=C(O)c1cc2c([nH]1)CCC2Cc1ccc(F)cc1 (racemic) [Compound 39, 4-(4-fluorobenzyl)-1,4,5,6-tetrahydrocyclopenta[b]pyrrole-2-carboxylic acid]	≤ 0.1
O=C(O)c1cc2c([nH]1)CCC2Cc1ccc2ccccc2c1 (racemic) [Compound 78, 4-(naphthalen-2-ylmethyl)-1,4,5,6-tetrahydrocyclopenta[b]pyrrole-2-carboxylic acid]	≤ 0.1
Cc1ccc(CC2CCc3[nH]c(C(=O)O)cc32)cc1C (stereo not shown) [Compound 71, 4-(3,4-dimethylbenzyl)-1,4,5,6-tetrahydrocyclopenta[b]pyrrole-2-carboxylic acid]	≤ 1
Cc1cc(C)cc(CC2CCc3[nH]c(C(=O)O)cc32)c1 (stereo not shown) [Compound 72, 4-(3,5-dimethylbenzyl)-1,4,5,6-tetrahydrocyclopenta[b]pyrrole-2-carboxylic acid]	≤ 100
O=C(O)c1cc2c([nH]1)CCC2Cc1cccc(C2CC2)c1 (stereo not shown) [Compound 73, 4-(3-cyclopropylbenzyl)-1,4,5,6-tetrahydrocyclopenta[b]pyrrole-2-carboxylic acid]	≤ 0.1
C#Cc1cccc(CC2CCc3[nH]c(C(=O)O)cc32)c1 (stereo not shown) [Compound 74, 4-(3-ethynylbenzyl)-1,4,5,6-tetrahydrocyclopenta[b]pyrrole-2-carboxylic acid]	≤ 0.1
CC(=O)c1cccc(CC2CCc3[nH]c(C(=O)O)cc32)c1 (stereo not shown) [Compound 76, 4-(3-acetylbenzyl)-1,4,5,6-tetrahydrocyclopenta[b]pyrrole-2-carboxylic acid]	≤ 1
NC(=O)c1cccc(CC2CCc3[nH]c(C(=O)O)cc32)c1 (stereo not shown) [Compound 77, 4-(3-carbamoylbenzyl)-1,4,5,6-tetrahydrocyclopenta[b]pyrrole-2-carboxylic acid]	≤ 1
O=C(O)c1cc2c([nH]1)CCC2Cc1ccc(-c2ccccc2)cc1 (stereo not shown) [Compound 81, 4-(biphenyl-4-ylmethyl)-1,4,5,6-tetrahydrocyclopenta[b]pyrrole-2-carboxylic acid]	≤ 1
O=C(O)c1cc2c([nH]1)CCC2Cc1cccc(-c2ccccc2)c1 (stereo not shown) [Compound 82, 4-(biphenyl-3-ylmethyl)-1,4,5,6-tetrahydrocyclopenta[b]pyrrole-2-carboxylic acid]	≤ 1
O=C(O)c1cc2c([nH]1)CCC2Cc1cccc(-c2cccnc2)c1 (stereo not shown) [Compound 83, 4-(3-(pyridin-3-yl)benzyl)-1,4,5,6-tetrahydrocyclopenta[b]pyrrole-2-carboxylic acid]	≤ 1
O=C(O)c1cc2c([nH]1)CCC2Cc1cccc(-c2ccc(C(F)(F)F)cc2)c1 (stereo not shown) [Compound 84, 4-((4′-(trifluoromethyl)biphenyl-3-yl)methyl)-1,4,5,6-tetrahydrocyclopenta[b]pyrrole-2-carboxylic acid]	≤ 1
O=C(O)c1cc2c([nH]1)CCC2Cc1cccc(-c2ccc(O)cc2)c1 (stereo not shown) [Compound 85, 4-((4′-hydroxybiphenyl-3-yl)methyl)-1,4,5,6-tetrahydrocyclopenta[b]pyrrole-2-carboxylic acid]	≤ 100
O=C(O)c1cc2c([nH]1)CCC2Cc1cccc(-c2ccc(CO)cc2)c1 (stereo not shown) [Compound 86, 4-((4′-(hydroxymethyl)biphenyl-3-yl)methyl)-1,4,5,6-tetrahydrocyclopenta[b]pyrrole-2-carboxylic acid]	≤ 1
O=C(O)c1cc2c([nH]1)CCC2Cc1cccc(C2CCOC2)c1 (stereo not shown) [Compound 90, 4-(3-(tetrahydrofuran-3-yl)benzyl)-1,4,5,6-tetrahydrocyclopenta[b]pyrrole-2-carboxylic acid]	≤ 1
O=C(O)c1cc2c([nH]1)CCC2c1ccc(Cl)cc1 (stereo not shown) [Compound 101, 4-(4-chlorophenyl)-1,4,5,6-tetrahydrocyclopenta[b]pyrrole-2-carboxylic acid]	≤ 0.1
O=C(O)c1cc2c([nH]1)CCC2c1cccc(Cl)c1 (stereo not shown) [Compound 102, 4-(3-chlorophenyl)-1,4,5,6-tetrahydrocyclopenta[b]pyrrole-2-carboxylic acid]	≤ 0.1
O=C(O)c1cc2c([nH]1)CCC2c1cccc(Br)c1 (stereo not shown) [Compound 103, 4-(3-bromophenyl)-1,4,5,6-tetrahydrocyclopenta[b]pyrrole-2-carboxylic acid]	≤ 0.1
Cc1cc(C)cc(C2CCc3[nH]c(C(=O)O)cc32)c1 (stereo not shown) [Compound 104, 4-(3,5-dimethylphenyl)-1,4,5,6-tetrahydrocyclopenta[b]pyrrole-2-carboxylic acid]	≤ 100

Structure (SMILES)	IC50 [µM]
O=C(O)c1cc2c([nH]1)CCC2c1ccc(-c2ccccc2)cc1 (stereo not shown) [Compound 106, 4-(biphenyl-4-yl)-1,4,5,6-tetrahydrocyclopenta[b]pyrrole-2-carboxylic acid]	≤ 100
O=C(O)c1cc2c([nH]1)CCC2c1ccc(Cc2ccccc2)cc1 (stereo not shown) [Compound 107, 4-(4-benzylphenyl)-1,4,5,6-tetrahydrocyclopenta[b]pyrrole-2-carboxylic acid]	≤ 1
O=C(O)c1cc2c([nH]1)CCC2NCc1ccc(Cl)cc1 (stereo not shown) [Compound 108, 4-(4-chlorobenzylamino)-1,4,5,6-tetrahydrocyclopenta[b]pyrrole-2-carboxylic acid]	≤ 100
CC1CCc2cc(C(=O)O)[nH]c21 (stereo not shown) [Compound 109, 6-methyl-1,4,5,6-tetrahydrocyclopenta[b]pyrrole-2-carboxylic acid]	≤ 1
CCCC1CCc2cc(C(=O)O)[nH]c21 (stereo not shown) [Compound 110, 6-propyl-1,4,5,6-tetrahydrocyclopenta[b]pyrrole-2-carboxylic acid]	≤ 1
O=C(O)c1cc2c([nH]1)C(c1cccc(F)c1)CC2 (stereo not shown) [Compound 111, 6-(3-fluorophenyl)-1,4,5,6-tetrahydrocyclopenta[b]pyrrole-2-carboxylic acid]	≤ 1
O=C(O)c1cc2c([nH]1)C(c1ccc(F)c(F)c1)CC2 (stereo not shown) [Compound 112, 6-(3,4-difluorophenyl)-1,4,5,6-tetrahydrocyclopenta[b]pyrrole-2-carboxylic acid]	≤ 1
O=C(O)c1cc2c([nH]1)C(c1ccc(Cl)cc1)CC2 (stereo not shown) [Compound 113, 6-(4-chlorophenyl)-1,4,5,6-tetrahydrocyclopenta[b]pyrrole-2-carboxylic acid]	≤ 1
O=C(O)c1cc2c([nH]1)C(c1cccc(Cl)c1)CC2 (stereo not shown) [Compound 114, 6-(3-chlorophenyl)-1,4,5,6-tetrahydrocyclopenta[b]pyrrole-2-carboxylic acid]	≤ 1
O=C(O)c1cc2c([nH]1)C(c1cccc(Br)c1)CC2 (stereo not shown) [Compound 115, 6-(3-bromophenyl)-1,4,5,6-tetrahydrocyclopenta[b]pyrrole-2-carboxylic acid]	≤ 1
Cc1ccc(C2CCc3cc(C(=O)O)[nH]c32)cc1 (stereo not shown) [Compound 116, 6-p-tolyl-1,4,5,6-tetrahydrocyclopenta[b]pyrrole-2-carboxylic acid]	≤ 1
N#Cc1cccc(C2CCc3cc(C(=O)O)[nH]c32)c1 (stereo not shown) [Compound 117, 6-(3-cyanophenyl)-1,4,5,6-tetrahydrocyclopenta[b]pyrrole-2-carboxylic acid]	≤ 1
O=C(O)c1cc2c([nH]1)C(Cc1cccc(O)c1)CC2 (stereo not shown) [Compound 128, 6-(3-hydroxybenzyl)-1,4,5,6-tetrahydrocyclopenta[b]pyrrole-2-carboxylic acid]	≤ 0.1
O=C(O)c1cc2c([nH]1)C(CCc1cccc3ccccc13)CC2 (stereo not shown) [Compound 132, 6-(2-(naphthalen-1-yl)ethyl)-1,4,5,6-tetrahydrocyclopenta[b]pyrrole-2-carboxylic acid]	≤ 1
O=C(O)c1cc2c([nH]1)C(Cc1ccc(-c3ccccc3)cc1)CC2 (stereo not shown) [Compound 133, 6-(biphenyl-4-ylmethyl)-1,4,5,6-tetrahydrocyclopenta[b]pyrrole-2-carboxylic acid]	≤ 1
O=C(O)c1[nH]c2c(c1Br)[C@H]1C[C@H]1C2 [Compound 145, (1aS,5aS)-1a,4,5,5a-tetrahydro-1H-2-bromo-4-aza-cyclopropa[α]pentalene-3-carboxylic acid]	≤ 100
O=C(O)c1[nH]c2c(c1Br)C(CCc1ccccc1)CC2 (stereo not shown) [Compound 147, 3-bromo-4-phenethyl-1,4,5,6-tetrahydrocyclopenta[b]pyrrole-2-carboxylic acid]	≤ 1
COC1c2cc(C(=O)O)[nH]c2CC1(F)F (stereo not shown) [Compound 148, 5,5-difluoro-4-methoxy-1,4,5,6-tetrahydrocyclopenta[b]pyrrole-2-carboxylic acid]	≤ 100

The compounds below were run on D-serine levels in the cerebellum (assay: In vivo elevation of D-serine levels in the cerebellum). Conditions: mice, intraperitoneal, dose 30 mg/kg, 2 hours.
Parameters: species or system Mice (C57BL/6)
Method: […] Animals are sacrificed at either 2 or 6 h post compound administration with an N=3 per time point. At sacrifice, trunk blood is collected into tubes containing potassium EDTA, which are then centrifuged to permit isolation of plasma. The cerebellum is dissected from each animal. Plasma and cerebellum samples are stored at −80° C. until samples are analyzed (LC/MS/MS).

Structure (SMILES)	Cerebellum D-serine at 2 hours
O=C(O)c1cc2c([nH]1)CCC2Cc1ccc(F)cc1 (racemic) [Compound 39, 4-(4-fluorobenzyl)-1,4,5,6-tetrahydrocyclopenta[b]pyrrole-2-carboxylic acid]	(+) (2.5-4.9 = (+))
O=C(O)c1cc2c([nH]1)CCC2Cc1ccc2ccccc2c1 (racemic) [Compound 78, 4-(naphthalen-2-ylmethyl)-1,4,5,6-tetrahydrocyclopenta[b]pyrrole-2-carboxylic acid]	(+) (2.5-4.9 = (+))
O=C(O)c1cc2c([nH]1)CCC2Cc1ccc(F)c(Cl)c1 (single isomer, unassigned) [Compound 50, 4-(3-chloro-4-fluorobenzyl)-1,4,5,6-tetrahydrocyclopenta[b]pyrrole-2-carboxylic acid]	(++) (>5 = (++))

Same assay, conditions: mice, intraperitoneal, dose 30 mg/kg, 6 hours

Structure (SMILES)	Cerebellum D-serine at 6 hours
O=C(O)c1cc2c([nH]1)CCC2Cc1ccc(F)cc1 (racemic) [Compound 39, 4-(4-fluorobenzyl)-1,4,5,6-tetrahydrocyclopenta[b]pyrrole-2-carboxylic acid]	(+) (2.5-4.9 = (+))
O=C(O)c1cc2c([nH]1)CCC2Cc1ccc2ccccc2c1 (racemic) [Compound 78, 4-(naphthalen-2-ylmethyl)-1,4,5,6-tetrahydrocyclopenta[b]pyrrole-2-carboxylic acid]	(+) (2.5-4.9 = (+))
O=C(O)c1cc2c([nH]1)CCC2Cc1ccc(F)c(Cl)c1 (single isomer, unassigned) [Compound 50, 4-(3-chloro-4-fluorobenzyl)-1,4,5,6-tetrahydrocyclopenta[b]pyrrole-2-carboxylic acid]	(+) (2.5-4.9 = (+))
